# Measurements: US20190275324A1, “METHOD FOR TREATING OR PREVENTING A SICKLE-CELL DISEASE AND SYMPTOMS THEREOF” (DIAVEIN, priority 2016, published 2019)
# What was measured:
# [1] = tested on: patients with acute vaso-occlusive crisis; settings: after 4 hours; patients treated with morphine, Weiner et al.; cited from earlier work
# [2] = tested on: patients with a severe vaso-occlusive crisis associated with sickle cell disease; experiment: Clinical study of VEST in combination with NSAID for relief of pain in vaso-occlusive crisis (Example 6), 10-cm VAS for pain; assay type: in vivo, human; settings: all groups also given Perfalgan and Tramadol
# Excerpt: The objective of the clinical study was to assess the efficacy of VEST in combination with non-steroid anti-inflammatory drugs to manage pain in adult and paediatric patients experimenting a severe vaso-occlusive crisis associated with sickle cell disease.
# 27 patients suffering from a sickle-cell disease and experimenting a severe vaso-occlusive crisis, with a pain score of at least 6 in the visual analog scale for pain (VAS pain), were enrolled in the study. The enrolled patients comprised 16 adults (of 19 to 35 years) and 11 children (of 8 to 17 years). 8 patients were of HbSS genotype, 19 patients were of HbSC genotype. The enrolled patients comprised 18 male subjects and 9 female subjects.
# After their admission at the hospital, 15 patients received pain killer (Perfalgan) and (Tramadol) drugs and the NSAID Diclofenac and were subjected to VEST treatment for 4 hours, with two electrodes under each calf and two electrodes under each arm of the patient.
# 2 patients received Pain killer (Perfalgan) and (Tramadol) drug and were subjected to VEST treatment for 4 hours, with two electrodes under each calf and two electrodes under each arm of the patient. These patients were not administered with any NSAID. […]
# Pain change in each patient was assessed with a 10-cm visual analog scale (VAS) for pain (e.g. as shown in FIG. 4) every two hours, during 6 hours after the beginning of VEST.
smiles,measurement,setting,value
CN1CC[C@]23c4c5ccc(O)c4O[C@H]2[C@@H](O)C=C[C@H]3[C@H]1C5 [morphine],mean pain score in VAS,[1],higher than 6 cm
"O=C(O)Cc1ccccc1Nc1c(Cl)cccc1Cl [NSAID alone, Diclofenac]",mean pain score in VAS,[2]; after 4 hours,6 cm
same,mean pain score in VAS,[2]; after 6 hours,6 cm
